Laboratory results published in patent publication US20100331333A1, “Imidazo [1,2-B] Pyridazine Compounds” (Wyeth LLC, priority 2007, published 2010).

What was measured:
human LXRβ = target: T1, human LXRβ (Homo sapiens, UniProt P55055); assay: Ligand-binding test procedure for human LXRβ; conditions: 3H T0901317 tracer; biotinylated hLXRβ from E. coli extract
T1 construct: biotin (biotinylated); made in house; host or cells: E. coli
T1 sequence (P55055 1-460): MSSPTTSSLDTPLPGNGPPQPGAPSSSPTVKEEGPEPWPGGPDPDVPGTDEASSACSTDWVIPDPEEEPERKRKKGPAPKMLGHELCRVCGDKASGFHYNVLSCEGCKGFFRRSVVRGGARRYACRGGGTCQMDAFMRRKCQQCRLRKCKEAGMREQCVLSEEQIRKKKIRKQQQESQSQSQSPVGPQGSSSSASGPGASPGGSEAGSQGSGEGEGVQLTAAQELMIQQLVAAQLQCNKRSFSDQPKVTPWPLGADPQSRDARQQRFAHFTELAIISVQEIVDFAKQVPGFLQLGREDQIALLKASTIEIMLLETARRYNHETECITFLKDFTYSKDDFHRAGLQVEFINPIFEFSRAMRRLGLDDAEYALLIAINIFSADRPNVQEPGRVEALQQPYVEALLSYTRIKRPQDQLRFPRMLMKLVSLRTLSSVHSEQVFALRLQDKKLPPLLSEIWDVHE
Experimental: IV. Ligand-Binding Test Procedure for Human LXRβ.
(§1) Buffer: 100 mM KCl, 100 mM TRIS (pH 7.4 at +4° C.), 8.6% glycerol, 0.1 mM PMSF*, 2 mM MTG*, 0.2% CHAPS (* not used in wash buffer)
Receptor source: E. coli extract from cells expressing biotinylated hLXRβ. Extract was made in a similar buffer as above, but with 50 mM TRIS.
(§2) Washed streptavidin and coated flash plates with wash buffer. Diluted receptor extract to give Bmax ˜4000 cpm and add to the wells. Wrapped the plates in aluminum foil and stored them at +4° C. over night.
Made a dilution series in DMSO of the test ligands. Made a 5 nM solution of the radioactive tracer in buffer. Mixed 250 μl diluted tracer with 5 μl of the test ligand from each concentration of the dilution series. Washed the receptor-coated flash plates. Added 200 μl per well of the ligand/radiolabel mixture to the receptor-coated flash plates. Wrapped the plates in aluminum foil and incubate at +4° C. over night.
(§3) Aspirated wells, and wash the flashed plates. Sealed the plate. Measured the remaining radioactivity in the plate.

human LXRα = target: T2, human LXRα (Homo sapiens, UniProt Q13133); assay: Ligand-binding test procedure for human LXRα; conditions: 3H T0901317 tracer; biotinylated hLXRα from E. coli extract
T2 construct: biotin (biotinylated); made in house; host or cells: E. coli
T2 sequence (Q13133 1-447): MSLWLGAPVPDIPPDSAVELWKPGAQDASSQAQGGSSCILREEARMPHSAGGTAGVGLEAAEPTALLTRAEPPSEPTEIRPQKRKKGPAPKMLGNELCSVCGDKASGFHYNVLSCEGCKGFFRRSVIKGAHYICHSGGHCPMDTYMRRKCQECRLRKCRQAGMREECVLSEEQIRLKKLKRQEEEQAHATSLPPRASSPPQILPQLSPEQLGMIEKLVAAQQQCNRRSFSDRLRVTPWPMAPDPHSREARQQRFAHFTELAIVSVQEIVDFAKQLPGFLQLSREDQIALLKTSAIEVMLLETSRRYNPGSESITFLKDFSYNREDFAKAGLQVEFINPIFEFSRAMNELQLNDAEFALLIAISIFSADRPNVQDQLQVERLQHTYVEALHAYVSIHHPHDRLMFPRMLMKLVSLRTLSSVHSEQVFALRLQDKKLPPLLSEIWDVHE
Experimental: II. Ligand-Binding Test Procedure for Human LXRα.
as §1
Receptor source: E. coli extract from cells expressing biotinylated hLXRα. Extract was made in a similar buffer as above, but with 50 mM TRIS.
as §2
Made a dilution series in DMSO of the test ligands. Made a 5 nM solution of the radioactive tracer in buffer. Mixed 250 μl diluted tracer with 5 μl of the test ligand from each concentration of the dilution series.
Washed the receptor-coated flash plates.
Added 200 μl per well of the ligand/radiolabel mixture to the receptor-coated flash plates. Wrapped the plates in aluminum foil and incubate at +4° C. over night.
as §3

ABCA1 gene = assay: Quantitative analysis of ABCA1 gene regulation in THP-1 cells; type: cell-based; conditions: Gene regulation by LXR (human), differentiated THP-1 cells; for EC50: 18 hrs, ABCA1 mRNA by real-time PCR; for Agonism ABCA1: LXR agonist reference dosed at 1.0 uM as positive control
Experimental: III. Quantitative Analysis of ABCA1 Gene Regulation in THP-1 Cells.
The compounds of formula (I) effect on the regulation of the ABCA1 gene was evaluated using the following procedure.
Cell culture: The THP-1 monocytic cell line (ATCC # TIB-202) was obtained from American Type Culture Collection (Manassas, Va.) and cultured in RPMI 1640 medium (Gibco, Carlsbad, Calif.) containing 10% FBS, 2 mM L-glutamine, and 55 uM beta-Mercaptoethanol (BME). Cells were plated in 96-well format at a density of 7.5×10^4 in complete medium containing 50-100 ng/ml phorbal 12,13-dibutyrate (Sigma, St. Louis, Mo.) for three days to induce differentiation into adherent macrophages. Differentiated THP-1 cells were treated with test compounds or ligands dissolved in DMSO (Sigma, D-8779) in culture medium lacking phorbal ester. […] Dose response effects were measured in duplicate, in the range of 0.001 to 30 micromolar concentrations and treated cells were incubated for an additional 18 hrs prior to RNA isolation. Unstimulated cells treated with vehicle were included as negative controls on each plate. An LXR agonist reference, N-(2,2,2-trifluoro-ethyl)-N-[4-(2,2,2-trifluoro-1-hydroxy-1-trifluoromethyl-ethyl)-phenyl]-benzenesulfonamide (Schultz, Joshua R., Genes & Development (2000), 14(22), 2831-2838), was dosed at 1.0 uM and served as a positive control. In antagonist mode, the compound under study is analyzed in the presence of 150 nM GW3965, trifluoromethyl-benzyl)-(2,2-diphenyl-ethyl)-amino]-propoxy]-phenyl)-acetic acid (Collins, J. L., J. Med. Chem. (2000), 45:1963-1966.). Results of antagonist analysis are expressed as % antagonism and IC50 (in μM). RNA isolation and quantitation: Total cellular RNA was isolated from treated cells cultured in 96-well plates using PrepStation 6100 (Applied Biosystems, Foster City, Calif.), according to the manufacturer's recommendations. RNA was resuspended in ribonuclease-free water and stored at −70° C. prior to analysis. RNA concentrations were quantitated with RiboGreen test procedure, #R-11490 (Molecular Probes, Eugene, Oreg.). Gene expression analysis: Gene-specific mRNA quantitation was performed by real-time PCR with the Perkin Elmer Corp. chemistry on an ABI Prism 7700 Sequence detection system (Applied Biosystems, Foster City, Calif.) according to the manufacturer's instructions. Samples (50-100 ng) of total RNA were assayed in duplicate or triplicate in 50 ul reactions using one-step RT-PCR and the standard curve method to estimate specific mRNA concentrations. Sequences of gene-specific primer and probe sets were designed with Primer Express Software (Applied Biosystems, Foster City, Calif.). The human ABCA1 primer and probe sequences are: forward, […], reverse, […], and probe, 6FAM-[…]-TAMRA. RT and PCR reactions were performed according to PE Applied Biosystem's protocol for Taqman Gold RT-PCR or Qiagen's protocl for Quantitect probe RT-PCR. Relative levels of ABCA1 mRNA are normalized using GAPDH mRNA or 18S rRNA probe/primer sets purchased commercially (Applied Biosystems, Foster City, Calif.).
Mean, standard deviation and statistical significance of duplicate evaluations of RNA samples were assessed using ANOVA, one-way analysis of variance using SAS analysis.

`CS(=O)(=O)c1cccc(Oc2cccc(-c3c(Cc4ccccc4)nc4c(C(F)(F)F)ccnn34)c2)c1` [Example 7, 2-Benzyl-3-{3-[3-(methylsulfonyl)phenoxy]phenyl}-8-(trifluoromethyl)imidazo[1,2-b]pyridazine] showed an IC50 (human LXRβ) of 1.96 nM and an IC50 (human LXRα) of 44 nM.

In the case of `CCc1nc2c(C(F)(F)F)ccnn2c1-c1cccc(Oc2cccc(S(C)(=O)=O)c2)c1` [Example 8, 2-ethyl-3-{3-[3-(methylsulfonyl)phenoxy]phenyl}-8-(trifluoromethyl)imidazo[1,2-b]pyridazine], the IC50 (human LXRβ) is reported as 133 nM, the IC50 (human LXRα) is reported as 2040 nM and the EC50 (ABCA1 gene) is reported as 1850 nM. The “Agonism ABCA1” value (ABCA1 gene) was 85%.

`CCc1nc2c(C(F)(F)F)ccnn2c1-c1cccc(Oc2cccc(S(=O)(=O)CC)c2)c1` [Example 9, 2-Ethyl-3-{3-[3-(ethylsulfonyl)phenoxy]phenyl}-8-(trifluoromethyl)imidazo[1,2-b]pyridazine] was tested, and the IC50 (human LXRβ) was 148 nM and the IC50 (human LXRα) was 1570 nM.

`CC(C)c1nc2c(C(F)(F)F)ccnn2c1-c1cccc(Oc2cccc(S(C)(=O)=O)c2)c1` [Example 10, 2-isopropyl-3-{3-[3-(methylsulfonyl)phenoxy]phenyl}-8-(trifluoromethyl)imidazo[1,2-b]pyridazine] showed an IC50 (human LXRβ) of 99 nM, an IC50 (human LXRα) of 1460 nM and an EC50 (ABCA1 gene) of 1840 nM. The “Agonism ABCA1” value (ABCA1 gene) was 81%.

For `CCS(=O)(=O)c1cccc(Oc2cccc(-c3c(C(C)C)nc4c(C(F)(F)F)ccnn34)c2)c1` [Example 11, 3-{3-[3-(ethylsulfonyl)phenoxy]phenyl}-2-isopropyl-8-(trifluoromethyl)imidazo[1,2-b]pyridazine], the IC50 (human LXRβ) was 117 nM, the IC50 (human LXRα) was 1090 nM and the EC50 (ABCA1 gene) was 2050 nM. The “Agonism ABCA1” value (ABCA1 gene) was 92%.
